Source: US20230190717A1, “P38 GAMMA INHIBITORS AND METHOD OF USE THEREOF” (City of Hope, priority 2017, published 2023)

Assays:
Hut78 cells = test: CellTiterGlo cell viability, Hut78; type: cell-based, human
Protocol: Viability assays using trypan blue exclusion and CellTiterGlo Cell Viability Assay: Cell viability was calculated by diluting cell suspensions 1:1 in 0.4% TRYPAN BLUE solution (Sigma, St. Louis, Mo.) and counting the number of viable cells using a TC20™ automated cell counter (Bio-Rad, Irvine, Calif.) that automatically excludes the number of non-viable cells stained with trypan blue per total cells. […] All data points are an average of triplicate experiments.
(§3) Absorbance was monitored at 490 nm using an automated BMG PHERAstar plate reader (BMG Labtech). […] All experiments are repeated in three independent experiments and data represented are the average of triplicate experiments.

HH cells = test: HH cell proliferation (cell number); type: cell-based, human; settings: 100 nM and 300 nM, four days
MOLT-4 = test: NCI-60 cytotoxicity, MOLT-4; type: cell-based, human; settings: MOLT-4 (ALL), 72 h
Protocol: (§1) Briefly, human NCI-60 cancer cell lines were counted with a Vi-CELL Cell Viability Analyzer (Beckman Coulter), resuspended in RPMI-1640 medium containing 10% FBS and 1% penicillin/streptomycin and dispensed in wells of 96-well microplates (3000 cells per well for solid tumor and 5000 per well for blood tumor cells) using an epMotion 5075 liquid handler (Eppendorf) under a sterile condition, followed by incubation overnight at 37° C. in 5% (v/v) CO2. Cells were exposed to compounds in a dose-dependent manner for 72 h. An MTS dye (20 uL per well) was added to each well. Cell viability was determined by tetrazolium conversion to its […] dye. […] Each experiment was performed in duplicate. […] H9 cells are more sensitive to drugs, therefore instead of 72 hours, we choose 48 hour the incubation time for H9 cells.
(§2) IC50 values were determined using […] software (Biosoft).

CCRF-CEM = test: NCI-60 cytotoxicity, CCRF-CEM; type: cell-based, human; settings: CCRF-CEM (Leukemia), 72 h
Protocol: as §1, §2

NCI-H460 = test: NCI-60 cytotoxicity, NCI-H460; type: cell-based, human; settings: NCI-H460 (Lung), 72 h
Protocol: as §1, §2

HOP-92 = test: NCI-60 cytotoxicity, HOP-92; type: cell-based, human; settings: HOP-92 (Lung), 72 h
Protocol: as §1, §2

HOP-62 = test: NCI-60 cytotoxicity, HOP-62; type: cell-based, human; settings: HOP-62 (Lung), 72 h
Protocol: as §1, §2

KM12 = test: NCI-60 cytotoxicity, KM12; type: cell-based, human; settings: KM12 (Colon), 72 h
Protocol: as §1, §2

HCC-2998 = test: NCI-60 cytotoxicity, HCC-2998; type: cell-based, human; settings: HCC-2998 (Colon), 72 h
Protocol: as §1, §2

Colo 205 = test: NCI-60 cytotoxicity, Colo 205; type: cell-based, human; settings: Colo 205 (Colon), 72 h
Protocol: as §1, §2

HT29 = test: NCI-60 cytotoxicity, HT29; type: cell-based, human; settings: HT29 (Colon), 72 h
Protocol: as §1, §2

OVCAR-8 = test: NCI-60 cytotoxicity, OVCAR-8; type: cell-based, human; settings: OVCAR-8 (Ovarian), 72 h
Protocol: as §1, §2

UACC257 = test: NCI-60 cytotoxicity, UACC257; type: cell-based, human; settings: UACC257 (Melanoma), 72 h
Protocol: as §1, §2

UACC-62 = test: NCI-60 cytotoxicity, UACC-62; type: cell-based, human; settings: UACC-62 (Melanoma), 72 h
Protocol: as §1, §2

M14 = test: NCI-60 cytotoxicity, M14; type: cell-based, human; settings: M14 (Melanoma), 72 h
Protocol: as §1, §2

SK-MEL-28 = test: NCI-60 cytotoxicity, SK-MEL-28; type: cell-based, human; settings: SK-MEL-28 (Melanoma), 72 h
Protocol: as §1, §2

MCF7 = test: NCI-60 cytotoxicity, MCF7; type: cell-based, human; settings: MCF7 (Breast), 72 h
Protocol: as §1, §2

HS 578T = test: NCI-60 cytotoxicity, HS 578T; type: cell-based, human; settings: HS 578T (Breast), 72 h
Protocol: as §1, §2

U251 = test: NCI-60 cytotoxicity, U251; type: cell-based, human; settings: U251 (CNS), 72 h
Protocol: as §1, §2

SF-539 = test: NCI-60 cytotoxicity, SF-539; type: cell-based, human; settings: SF-539 (CNS), 72 h
Protocol: as §1, §2

SF-268 = test: NCI-60 cytotoxicity, SF-268; type: cell-based, human; settings: SF-268 (CNS), 72 h
Protocol: as §1, §2

SF-295 = test: NCI-60 cytotoxicity, SF-295; type: cell-based, human; settings: SF-295 (CNS), 72 h
Protocol: as §1, §2

SNB-75 = test: NCI-60 cytotoxicity, SNB-75; type: cell-based, human; settings: SNB-75 (CNS), 72 h
Protocol: as §1, §2

UO31 = test: NCI-60 cytotoxicity, UO31; type: cell-based, human; settings: UO31 (Renal), 72 h
Protocol: as §1, §2

ACHN = test: NCI-60 cytotoxicity, ACHN; type: cell-based, human; settings: ACHN (Renal), 72 h
Protocol: as §1, §2

A498 = test: NCI-60 cytotoxicity, A498; type: cell-based, human; settings: A498 (Renal), 72 h
Protocol: as §1, §2

SN12C = test: NCI-60 cytotoxicity, SN12C; type: cell-based, human; settings: SN12C (Renal), 72 h
Protocol: as §1, §2

TK-10 = test: NCI-60 cytotoxicity, TK-10; type: cell-based, human; settings: TK-10 (Renal), 72 h
Protocol: as §1, §2

PI3K p110γ = PI3K p110γ (Homo sapiens, UniProt P48736); settings: summarized from Selleck and Apexbio; read-out: IC50 of PI3K Isoforms, p110γ; cited from earlier work
NCI-H226 = test: NCI-60 cytotoxicity, NCI-H226; type: cell-based, human; settings: NCI-H226 (Lung), 72 h
Protocol: Cells were exposed to compounds in a dose-dependent manner for 72 h. An MTS dye (20 uL per well) was added to each well. Cell viability was determined by tetrazolium conversion to its format an dye. Absorbance was monitored at 490 nm using an automated BMG PHERAstar plate reader (BMG Labtech). Each experiment was performed in duplicate. IC50 values were determined using CalcuSyn software (Biosoft).
as §3

Chain of PI3K p110γ (P48736 whole entry, canonical isoform): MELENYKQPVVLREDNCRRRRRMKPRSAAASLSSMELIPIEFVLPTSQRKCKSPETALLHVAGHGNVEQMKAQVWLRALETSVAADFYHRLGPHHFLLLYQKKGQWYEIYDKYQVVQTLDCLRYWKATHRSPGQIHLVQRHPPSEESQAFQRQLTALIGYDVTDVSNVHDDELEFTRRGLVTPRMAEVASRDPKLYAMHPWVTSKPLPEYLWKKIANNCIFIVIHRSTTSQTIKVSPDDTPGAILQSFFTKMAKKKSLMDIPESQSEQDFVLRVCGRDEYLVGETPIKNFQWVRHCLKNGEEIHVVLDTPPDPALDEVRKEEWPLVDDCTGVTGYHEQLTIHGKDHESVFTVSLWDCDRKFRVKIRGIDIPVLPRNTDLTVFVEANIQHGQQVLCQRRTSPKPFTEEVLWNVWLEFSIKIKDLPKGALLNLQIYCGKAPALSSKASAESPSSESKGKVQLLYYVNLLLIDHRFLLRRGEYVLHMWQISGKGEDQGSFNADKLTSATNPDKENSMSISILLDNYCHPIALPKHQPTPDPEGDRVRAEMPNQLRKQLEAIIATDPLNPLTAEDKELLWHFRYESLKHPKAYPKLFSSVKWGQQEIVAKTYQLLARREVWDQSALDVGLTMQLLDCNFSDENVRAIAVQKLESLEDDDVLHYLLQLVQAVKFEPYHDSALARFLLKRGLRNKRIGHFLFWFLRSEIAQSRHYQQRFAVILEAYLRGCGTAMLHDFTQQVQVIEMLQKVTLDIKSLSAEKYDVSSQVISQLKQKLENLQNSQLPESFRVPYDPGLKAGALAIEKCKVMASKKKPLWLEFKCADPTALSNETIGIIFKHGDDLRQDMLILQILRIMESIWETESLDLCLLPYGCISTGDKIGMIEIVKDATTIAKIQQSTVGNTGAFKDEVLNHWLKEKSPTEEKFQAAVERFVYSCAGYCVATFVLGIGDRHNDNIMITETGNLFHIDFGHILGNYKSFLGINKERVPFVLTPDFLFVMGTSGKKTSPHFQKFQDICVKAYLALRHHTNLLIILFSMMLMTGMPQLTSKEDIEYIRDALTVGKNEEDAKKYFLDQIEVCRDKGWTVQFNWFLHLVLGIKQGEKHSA

Cc1ccc([N+](=O)[O-])cc1S(=O)(=O)N(C)/N=C/c1cnc2ccc(Br)cn12 [Compound 1]
cell viability (Hut78 cells; Hut78, 100 nM): significantly reduced viability | effect on viability of Hut78 cells (Hut78 cells; varying concentrations, 72 hr): dose-dependent inhibition of cell viability | proliferation of HH cells (HH cells): sufficiently reduced proliferation | IC50 (MOLT-4; Homo sapiens): 0.527 µM | IC50 (CCRF-CEM; Homo sapiens): 3.72 µM | IC50 (NCI-H460; Homo sapiens): 0.01 µM | IC50 (HOP-92; Homo sapiens): 0.094 µM | IC50 (HOP-62; Homo sapiens): 0.008 µM | IC50 (KM12; Homo sapiens): 0.006 µM | IC50 (HCC-2998; Homo sapiens): > 10 µM | IC50 (Colo 205; Homo sapiens): 2.18 µM | IC50 (HT29; Homo sapiens, HT-29): 0.087 µM | IC50 (OVCAR-8; Homo sapiens): 0.059 µM | IC50 (UACC257; Homo sapiens, UACC-257): 2.32 µM | IC50 (UACC-62; Homo sapiens): 0.362 µM | IC50 (M14; Homo sapiens): 0.195 µM | IC50 (SK-MEL-28; Homo sapiens): 1.69 µM | IC50 (MCF7; Homo sapiens): 0.238 µM | IC50 (HS 578T; Homo sapiens): 0.586 µM | IC50 (U251; Homo sapiens, U-251): 0.253 µM | IC50 (SF-539; Homo sapiens): 0.177 µM | IC50 (SF-268; Homo sapiens): 2.23 µM | IC50 (SF-295; Homo sapiens): 0.141 µM | IC50 (SNB-75; Homo sapiens): 0.435 µM | IC50 (UO31; Homo sapiens, UO-31): 0.115 µM | IC50 (ACHN; Homo sapiens): 0.092 µM | IC50 (A498; Homo sapiens): 0.027 µM | IC50 (SN12C; Homo sapiens): 0.468 µM | IC50 (TK-10; Homo sapiens): 0.805 µM | IC50 (PI3K p110γ): 0.076 µM

O=C1NC(=NCc2cccs2)S/C1=C\c1ccc2ncccc2c1 [Compound A10]
IC50 (MOLT-4): 5.2 µM | IC50 (CCRF-CEM): 2.5 µM | IC50 (NCI-H226): > 10 µM | IC50 (NCI-H460): > 10 µM | IC50 (HOP-92): 6.04 µM | IC50 (HOP-62): > 10 µM | IC50 (KM12): > 10 µM | IC50 (HCC-2998): > 10 µM | IC50 (Colo 205): > 10 µM | IC50 (HT29): > 10 µM | IC50 (OVCAR-8): > 10 µM | IC50 (UACC257): > 10 µM | IC50 (UACC-62): > 10 µM | IC50 (SK-MEL-28): > 10 µM | IC50 (HS 578T): 5.83 µM | IC50 (U251): 1.92 µM | IC50 (SF-539): 2.55 µM | IC50 (SF-268): > 10 µM | IC50 (SF-295): > 10 µM | IC50 (SNB-75): > 10 µM | IC50 (UO31): > 10 µM | IC50 (ACHN): 4.46 µM | IC50 (A498): > 10 µM | IC50 (SN12C): > 10 µM | IC50 (TK-10): > 10 µM

O=C1NCCc2[nH]c(-c3ccncc3)cc21 [Compound A11]
IC50 (MOLT-4): 6.98 µM | IC50 (CCRF-CEM): 2.5 µM | IC50 (NCI-H226): > 10 µM | IC50 (HOP-92): 6.4 µM | IC50 (HOP-62): 9.94 µM | IC50 (KM12): 2.28 µM | IC50 (HCC-2998): > 10 µM | IC50 (Colo 205): > 10 µM | IC50 (HT29): 5.04 µM | IC50 (OVCAR-8): 3.6 µM | IC50 (UACC257): > 10 µM | IC50 (UACC-62): 6.12 µM | IC50 (M14): 3.33 µM | IC50 (SK-MEL-28): 9.6 µM | IC50 (MCF7): 3.77 µM | IC50 (HS 578T): > 10 µM | IC50 (U251): 4.57 µM | IC50 (SF-539): 3.68 µM | IC50 (SF-268): > 10 µM | IC50 (SF-295): 7.64 µM | IC50 (SNB-75): 6.14 µM | IC50 (UO31): 4.03 µM | IC50 (ACHN): > 10 µM | IC50 (A498): > 10 µM | IC50 (TK-10): > 10 µM
